Drawing on patent publication US20230399319A1, “Acylsulfamide Compound and Pharmaceutical Use Therefor” (Japan Tobacco Inc., priority 2019, published 2023), this text covers IC50 and inhibition for 47 compounds.

Some results are limits rather than exact numbers.

NLRP3 inflammasome, sequence (Q96P20 whole entry): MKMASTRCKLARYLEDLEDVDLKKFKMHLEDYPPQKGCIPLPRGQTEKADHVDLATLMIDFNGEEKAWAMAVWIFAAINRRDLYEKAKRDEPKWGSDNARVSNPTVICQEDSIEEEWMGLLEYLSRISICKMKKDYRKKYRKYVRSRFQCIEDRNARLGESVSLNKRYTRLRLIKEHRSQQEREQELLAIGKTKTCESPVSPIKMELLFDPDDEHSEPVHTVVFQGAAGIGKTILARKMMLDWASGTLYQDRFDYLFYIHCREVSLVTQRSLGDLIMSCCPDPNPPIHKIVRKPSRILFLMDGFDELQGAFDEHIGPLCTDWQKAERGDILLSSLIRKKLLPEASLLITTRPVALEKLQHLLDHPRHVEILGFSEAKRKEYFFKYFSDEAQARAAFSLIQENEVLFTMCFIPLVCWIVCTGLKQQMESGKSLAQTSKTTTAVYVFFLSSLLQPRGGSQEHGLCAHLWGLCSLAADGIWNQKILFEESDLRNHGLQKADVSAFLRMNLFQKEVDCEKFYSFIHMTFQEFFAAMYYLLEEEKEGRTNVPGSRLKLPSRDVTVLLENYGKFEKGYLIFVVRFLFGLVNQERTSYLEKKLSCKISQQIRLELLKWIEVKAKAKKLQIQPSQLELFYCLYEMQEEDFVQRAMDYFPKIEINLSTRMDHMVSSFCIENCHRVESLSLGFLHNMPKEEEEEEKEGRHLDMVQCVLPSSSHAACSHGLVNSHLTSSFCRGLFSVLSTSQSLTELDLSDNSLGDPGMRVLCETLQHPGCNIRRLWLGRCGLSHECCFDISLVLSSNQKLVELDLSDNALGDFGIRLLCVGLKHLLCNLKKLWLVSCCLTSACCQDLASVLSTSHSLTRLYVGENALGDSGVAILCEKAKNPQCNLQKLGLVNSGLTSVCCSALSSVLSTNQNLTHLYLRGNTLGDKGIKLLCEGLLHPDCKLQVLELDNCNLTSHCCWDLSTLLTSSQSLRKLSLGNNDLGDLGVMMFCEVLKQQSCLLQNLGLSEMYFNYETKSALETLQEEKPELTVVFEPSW

One experiment has as its target NLRP3 inflammasome (Homo sapiens (Human), UniProt Q96P20). Briefly: Evaluation of NLRP3 inflammasome inhibitory activity (inhibition of IL-1β production in THP1-Null cells, LPS/Nigericin).
Conditions: not given
What is called IC50 is the concentration needed to halve the response being measured. Read a low IC50 as greater potency. `CCC1COCCN1S(=O)(=O)NC(=O)c1coc(Nc2cc(C(C)C)ccc2C)n1` (racemic) [Example 2-082] came in with an IC50 of 160 nM. In other words, the sub-micromolar range.
On to `CCS(=O)(=O)N1CCCN(S(=O)(=O)NC(=O)c2coc(Nc3cc(C(F)(F)F)ccc3C)n2)CC1C` (racemic) [Example 2-242], for which the IC50 stood at 45 nM.
For `Cc1ccc(C(F)(F)F)cc1Nc1nc(C(=O)NS(=O)(=O)N2CCCC(C(=O)N(C)C)CC2)co1` (racemic) [Example 2-157], inhibition was half-maximal at 38 nM (IC50).
The same measure, in the same setting: the result for `COCC1CN(S(=O)(=O)NC(=O)c2coc(Nc3cc(C(F)(F)F)ccc3C)n2)CCCO1` (racemic) [Example 2-091] reads 38 nM.
In turn, `CC1COCCN1S(=O)(=O)NC(=O)c1cnc(Nc2c3c(cc4c2CCC4)CCC3)o1` (racemic) [Example 5] registered a concentration for half-maximal inhibition (IC50) of under 30 nM.
Regarding `Cc1ccc(C(F)(F)F)cc1Nc1nc(C(=O)NS(=O)(=O)N2CCN(S(=O)(=O)CCCF)CC(F)C2)co1` (racemic) [Example 2-198], inhibition was half-maximal at 29 nM (IC50).
`Cc1cc(C)n(C2CCCN(S(=O)(=O)NC(=O)c3coc(Nc4cc(C(F)(F)F)ccc4C)n3)CC2)n1` (racemic) [Example 2-297] gave an IC50 of 87 nM. This IC50 lies about 3-fold higher than the previous one.
The compound `Cc1ccc(C(F)(F)F)cc1Nc1nc(C(=O)NS(=O)(=O)N2CCCOCC2C)co1` (racemic) [Example 2-231] displayed an IC50 of 89 nM. The IC50 values of the last two compounds are within 1.5-fold of each other.
For `CCCS(=O)(=O)C1CCCN(S(=O)(=O)NC(=O)c2coc(Nc3cc(C(F)(F)F)ccc3C)n2)CC1` (centres unmarked) [Example 2-306], the IC50 worked out at 9.8 nM.
Take `Cc1ccc(C(F)(F)F)cc1Nc1nc(C(=O)NS(=O)(=O)N2CCCC(C)(C(=O)N(C)C)CC2)co1` (racemic) [Example 2-259]: the IC50 amounted to 87 nM. This IC50 is about 8.9-fold higher than that of the compound before.
The same measure, in the same setting: the result for `CCC1CN(S(=O)(=O)NC(=O)c2cnc(Nc3c4c(cc5c3CCC5)CCC4)o2)CCO1` (racemic) [Example 16] reads under 30 nM; that for `Cc1ccc(C(F)(F)F)cc1Nc1nc(C(=O)NS(=O)(=O)N2CCOCCC2C)co1` (racemic) [Example 2-058], 54 nM.
`Cc1ccc(C(F)(F)F)cc1Nc1nc(C(=O)NS(=O)(=O)N2CCOC(C)CC2)co1` (racemic) [Example 2-262]: the IC50 was 18 nM.
In turn, `CC1COCCN1S(=O)(=O)NC(=O)c1coc(Nc2c3c(cc4c2CCC4)CCC3)n1` (racemic) [Example 25] displayed an IC50 of 51 nM.
Turning to `Cc1ccc(C(F)(F)F)cc1Nc1nc(C(=O)NS(=O)(=O)N2CCOCC(C(=O)N(C)C)C2)co1` (racemic) [Example 2-143], it took 86 nM to reach half-maximal inhibition (IC50).

The same experiment, now with this note: IL-1β production in THP1-Null cells, PMA/LPS primed, Nigericin 7.5 μmol/L.
Consider `O=C(NS(=O)(=O)N1CCOCC1)c1coc(Nc2c3c(c(F)c4c2CCC4)CCC3)n1` [Example 53], for which the IC50 is under 30 nM.
Same read-out and setting: the result for `Cc1ccc(C(F)(F)F)cc1Nc1nc(C(=O)NS(=O)(=O)N2CCC(S(=O)(=O)N(C)C)CC2)co1` [Example 75] reads 32 nM; that for `CC(=O)NC1CCN(S(=O)(=O)NC(=O)c2coc(Nc3c4c(c(F)c5c3CCC5)CCC4)n2)CC1` [Example 62], 270 nM.
On the same count and under the same terms, the figure for `O=C(NS(=O)(=O)N1CCC(F)(F)C1)c1coc(Nc2c3c(c(Cl)c4c2CCC4)CCC3)n1` [Example 49] is 270 nM.
The same measure, in the same setting: the figure for `O=C(NS(=O)(=O)N1CC2CCC(C1)O2)c1coc(Nc2c3c(c(Cl)c4c2CCC4)CCC3)n1` [Example 51] is under 30 nM; for `CCOC(=O)c1c2c(nn1C)CN(S(=O)(=O)NC(=O)c1coc(Nc3c4c(c(F)c5c3CCC5)CCC4)n1)C2` [Example 67] it is 840 nM.
For `Cc1cc(Nc2nc(C(=O)NS(=O)(=O)N3CCOC(COC(C)C)CC3)co2)c(C)cc1F` (centres unmarked) [Example 3-003], the IC50 is 21 nM.
Same read-out and setting: the result for `CN1CCN(S(=O)(=O)NC(=O)c2coc(Nc3c4c(c(F)c5c3CCC5)CCC4)n2)CC1=O` [Example 64] reads 5700 nM.
With `Cc1ccc2c(c1Nc1nc(C(=O)NS(=O)(=O)N(C)C)co1)CCC2` [Example 69], it took 150 nM to reach half-maximal inhibition (IC50).
On the same count and under the same terms, the figure for `CN(C)S(=O)(=O)NC(=O)c1coc(Nc2c3c(c(F)c4c2CCC4)CCC3)n1` [Example 27] is 58 nM.
`Cc1ccc2c(c1Nc1nc(C(=O)NS(=O)(=O)N3CCOCC3)co1)CCC2` [Example 32] yielded an IC50 of 150 nM.
Consider `CS(=O)(=O)N1CCN(S(=O)(=O)NC(=O)c2coc(Nc3c4c(c(Cl)c5c3CCC5)CCC4)n2)CC1` [Example 55], for which the half-inhibitory concentration (IC50) was found to be 160 nM.

Still in this experiment, the particulars now being: inhibition of IL-1β production in THP1-Null cells.
With `CCCCS(=O)(=O)N1CCCN(S(=O)(=O)NC(=O)c2coc(Nc3nn(C(C)C)cc3C)n2)CC1` [Example 2-181], the IC50 was 31 nM. This counts as double-digit nanomolar.
`Cc1ccc(C(F)(F)F)cc1Nc1nc(C(=O)NS(=O)(=O)N2CCCN(S(=O)(=O)N(C)C)CC2)co1` [Example 2-099] displayed a concentration for half-maximal inhibition (IC50) of 21 nM.
As for `CCCS(=O)(=O)N1CCCN(S(=O)(=O)NC(=O)c2coc(Nc3cc(CC)ccc3C)n2)CC1` [Example 2-256], it took 15 nM to reach half-maximal inhibition (IC50). This IC50 and that of the compound before are within 1.5-fold of each other.
As for `Cc1ccc(C)c(Nc2nc(C(=O)NS(=O)(=O)N3CCCN(c4ncccn4)CC3)co2)c1` [Example 2-275], the IC50 is 160 nM.
On to `COc1ccc(C(F)(F)F)cc1Nc1nc(C(=O)NS(=O)(=O)N2CCCOCC2)co1` [Example 2-137], for which the IC50 turned out to be 130 nM.
`CC(C)c1ccc(C(C)C)c(Nc2nc(C(=O)NS(=O)(=O)N(C)C)co2)c1` [Example 2-070]: the IC50 is 120 nM.
On to `CCN(C)S(=O)(=O)N1CCCN(S(=O)(=O)NC(=O)c2coc(Nc3cc(C(F)(F)F)ccc3C)n2)CC1` [Example 2-129], for which it took 20 nM to reach half-maximal inhibition (IC50).
As for `CC(C)n1cc(Nc2nc(C(=O)NS(=O)(=O)N3CCCOCC3)co2)c(C2CC2)n1` [Example 2-195], half-maximal inhibition (IC50) required 1400 nM.
`Cc1ccc2c(c1Nc1nc(C(=O)NS(=O)(=O)N(C)C)cs1)CCC2` [Example 2-083]: the IC50 came out at 490 nM.
Consider `CCCS(=O)(=O)N1CCCN(S(=O)(=O)NC(=O)c2coc(Nc3cc(C)ccc3CC)n2)CC1` [Example 2-257], for which the IC50 was found to be 22 nM. Compared with the last compound, the IC50 is about 22-fold lower.
Regarding `CCCS(=O)(=O)N1CCCN(S(=O)(=O)NC(=O)c2coc(Nc3cccc4ocnc34)n2)CC1` [Example 2-271], the half-maximal inhibitory concentration (IC50) was found to be 940 nM.
Same read-out and setting: the figure for `CCCS(=O)(=O)N1CCCN(S(=O)(=O)NC(=O)c2coc(Nc3cn(C(C)C)nc3C(C)C)n2)CC1` [Example 2-160] is 170 nM; for `Cc1ccc(C(F)(F)F)cc1Nc1nc(C(=O)NS(=O)(=O)NC2CCOCC2)co1` [Example 2-037] it is 2700 nM; for `Cc1ccc(C(F)(F)F)cc1Nc1nc(C(=O)NS(=O)(=O)N2CCCN(S(=O)(=O)C3CC3)CC2)co1` [Example 2-103] it is 20 nM.
Still for that read-out and setting: the figure for `CCCN1CCCN(S(=O)(=O)NC(=O)c2coc(Nc3cc(C(F)(F)F)ccc3C)n2)CC1` [Example 2-154] is 230 nM; for `Cc1ccc(S(F)(F)(F)(F)F)cc1Nc1nc(C(=O)NS(=O)(=O)N(C)C)co1` [Example 2-034] it is 100 nM.
The compound `CCOCC1CCN(S(=O)(=O)NC(=O)c2coc(Nc3cc(C)ccc3C)n2)CCO1` (centres unmarked) [Example 2-305] yielded an IC50 of 49 nM.
The compound `Cc1ccc(C(F)(F)F)cc1Nc1nc(C(=O)NS(=O)(=O)N2CCCN(S(=O)(=O)CC(C)C)CC2)co1` [Example 2-128] registered an IC50 of 20 nM.
For `CC(C)c1ccc(OC(F)(F)F)c(Nc2nc(C(=O)NS(=O)(=O)N3CCCOCC3)co2)c1` [Example 2-175], half-maximal inhibition (IC50) was put at 400 nM.

The same experiment, now with this note: read-out: % inhibition at 3 μM.
One may read the inhibition as the relative decrease from the control value, in per cent. Take `CC(C)c1nn2c(c1Nc1nc(C(=O)NS(=O)(=O)N3CCCOCC3)co1)OCCC2C` (centres unmarked) [Example 2-248]: the inhibition at 3 µM came out at 44%.
